# Laboratory results from US9931347B2, “Pharmaceutical compound” (IOmet Pharma Ltd., priority 2013, dated 2018).
# Key:
# [1] = molecular target: T1, IDO (SKOV3 human ovarian adenocarcinoma cells, IFN-γ induced) (Homo sapiens, UniProt P14902); test: SKOV3 Kynurenine cell based assay; conditions: IDO induced by 500 ng/ml IFN-γ, 500 μM L-tryptophan, 48 hours
# T1 construct: IDO expression was induced in the SKOV3 cells by the addition of 500 ng/ml IFN-γ; endogenous in cells; host or cells: SKOV3 human ovarian adenocarcinoma cells, induced with IFN-γ
# Summary of the method: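 IFN-γ (500 ng/ml) induced IDO in SKOV3 cells, seeded at 40,000/well in phenol red-free RPMI with 10% FCS, 2 mM L-glutamine and 500 μM L-tryptophan. Cells were incubated with or without compound at 37° C for 48 h. Supernatant kynurenine was detected with Ehrlich's reagent.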
# Recombinant human TDO = Recombinant human TDO (Homo sapiens, UniProt P48775); test: hTDO biochemical coupled assay; conditions: 330 μM L-tryptophan, coupled with kynurenine formamidase
# Protocol: (§1) Exemplary compounds of the invention were prepared, and tested to determine their effect as TDO and/or IDO inhibitors. Two different assays were employed: 1. a cell-based assay for detecting the effect of test compounds on kynurenine production in two different cancer cell types. This assay utilised cancer cells which expressed either TDO or IDO and as such was used as a means of testing compound activity at these two enzymes in a cell-based context. 2. a TDO and IDO biochemical coupled assay which utilised recombinantly produced and purified TDO and IDO enzymes in combination with the enzyme formamidase. This coupled enzyme system allowed conversion of N-formylkynurenine produced by TDO or IDO activity to kynurenine which was then quantified by fluorescence following addition of Erhlich's Reagent The protocols for these are set out below.
# Recombinant human IDO or TDO was incubated in 50 mM KPO4 (pH 7.0), 0.5 mM EGTA, 0.5 mM EDTA, 0.05% Triton™ X100, 20 mM ascorbate, 10 μM methylene blue, 500 U/ml catalase, 50 μg/ml KynB (kynurenine formamidase). TDO assays were carried out in the presence of 330 μM L-tryptophan, while IDO assays had the addition of 45 μM L-tryptophan. After incubation for 17 minutes at room temperature the reactions were stopped by the addition of Erhlich's reagent and incubated at room temperature for 5 minutes before the fluorescence was read (Ex475, Em530).
# [2] = molecular target: T2, TDO (A172 human glioblastoma cells) (Homo sapiens, UniProt P48775); test: A172 Kynurenine cell based assay; conditions: 500 μM L-tryptophan, 48 hours, kynurenine by Erhlich's reagent
# T2 construct: This assay utilised cancer cells which expressed either TDO or IDO; endogenous in cells; host or cells: A172 human glioblastoma cells
# Summary of the method: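 A172 glioblastoma cells (30,000/well) cultured at 37° C. in phenol red-free RPMI with 10% FCS, 2 mM L-glutamine and 500 μM L-tryptophan, with or without test compound. After 48 hours, kynurenine in the supernatant was read with Erhlich's reagent (5 min) as absorbance at 490 nm.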
# Recombinant human IDO = Recombinant human IDO (Homo sapiens, UniProt P14902); test: hIDO biochemical coupled assay; conditions: 45 μM L-tryptophan, coupled with kynurenine formamidase
# Protocol: as §1
# Recombinant human IDO or TDO was incubated in 50 mM KPO4 (pH 7.0), 0.5 mM EGTA, 0.5 mM EDTA, 0.05% Triton™ X100, 20 mM ascorbate, 10 μM methylene blue, 500 U/ml catalase, 50 μg/ml KynB (kynurenine formamidase).
# Recombinant human TDO, sequence (P48775 whole entry): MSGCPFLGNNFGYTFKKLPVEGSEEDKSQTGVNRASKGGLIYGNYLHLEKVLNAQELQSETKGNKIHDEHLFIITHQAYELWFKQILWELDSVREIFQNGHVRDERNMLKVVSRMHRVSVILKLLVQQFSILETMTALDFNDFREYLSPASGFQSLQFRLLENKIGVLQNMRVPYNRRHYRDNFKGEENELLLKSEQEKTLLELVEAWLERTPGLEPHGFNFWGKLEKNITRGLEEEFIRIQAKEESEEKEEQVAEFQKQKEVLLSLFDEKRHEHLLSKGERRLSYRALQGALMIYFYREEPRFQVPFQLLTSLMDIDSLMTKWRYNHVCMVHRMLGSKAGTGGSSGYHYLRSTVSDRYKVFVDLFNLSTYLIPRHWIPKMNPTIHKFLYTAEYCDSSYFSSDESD
# T2 sequence (P48775 whole entry): as above
# T1 sequence (P14902 whole entry): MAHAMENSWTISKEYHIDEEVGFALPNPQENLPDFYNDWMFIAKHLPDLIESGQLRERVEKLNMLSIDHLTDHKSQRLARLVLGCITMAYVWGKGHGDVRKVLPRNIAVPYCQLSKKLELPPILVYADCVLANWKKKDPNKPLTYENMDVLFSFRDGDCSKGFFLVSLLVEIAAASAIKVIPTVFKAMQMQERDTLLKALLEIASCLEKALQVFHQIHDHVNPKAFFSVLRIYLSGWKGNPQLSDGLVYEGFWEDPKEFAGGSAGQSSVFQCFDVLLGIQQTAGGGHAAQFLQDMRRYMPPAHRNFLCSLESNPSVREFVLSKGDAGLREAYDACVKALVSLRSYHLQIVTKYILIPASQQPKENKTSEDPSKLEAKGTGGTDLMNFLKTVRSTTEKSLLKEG
# Recombinant human IDO, sequence (P14902 whole entry): as above
SMILES,SKOV3 Kynurenine cell based assay pIC50 [1],hTDO biochemical assay pIC50 (Recombinant human TDO),A172 Kynurenine cell based assay pIC50 [2],hIDO biocehmical assay pIC50 (Recombinant human IDO)
CN(C)CC(=O)N1CCC(c2c[nH]c3ccccc23)CC1 [Compound 81],+− (+− = pIC50 <4.00),+ (+ = pIC50 4.00-4.99),+− (+− = pIC50 <4.00),+− (+− = pIC50 <4.00)
CC(=O)N1CC=C(c2c[nH]c3cnccc23)CC1 [Compound 198],,+ (+ = pIC50 4.00-4.99),,
CS(=O)(=O)N1CC=C(c2c[nH]c3ccccc23)CC1 [Compound 209],,++ (++ = pIC50 5.00-5.99),++ (++ = pIC50 5.00-5.99),
COc1cccc2[nH]cc(C3=CCN(S(C)(=O)=O)CC3)c12 [Compound 197],,+ (+ = pIC50 4.00-4.99),,
CC(=O)N1CC=C(c2c[nH]c3cc(C)ccc23)CC1 [Compound 205],,+ (+ = pIC50 4.00-4.99),+ (+ = pIC50 4.00-4.99),
NS(=O)(=O)N1CCC(c2c[nH]c3cc(F)ccc23)CC1 [Compound 249],,+ (+ = pIC50 4.00-4.99),++ (++ = pIC50 5.00-5.99),
CCC(=O)N1CCC(c2c[nH]c3cc(F)ccc23)CC1 [Compound 263],++ (++ = pIC50 5.00-5.99),+ (+ = pIC50 4.00-4.99),++ (++ = pIC50 5.00-5.99),
CS(=O)(=O)N1CC=C(c2c[nH]c3cc(Cl)c(F)cc23)CC1 [Compound 227],,+ (+ = pIC50 4.00-4.99),++ (++ = pIC50 5.00-5.99),
Cn1cc(C2=CCN(S(C)(=O)=O)CC2)c2ccccc21 [Compound 204],,+ (+ = pIC50 4.00-4.99),,
CS(=O)(=O)N1CCC(c2c[nH]c3cc(F)c(F)cc23)CC1 [Compound 236],+ (+ = pIC50 4.00-4.99),+ (+ = pIC50 4.00-4.99),++ (++ = pIC50 5.00-5.99),
NS(=O)(=O)N1CCC(c2c[nH]c3ccccc23)CC1 [Compound 218],,+ (+ = pIC50 4.00-4.99),++ (++ = pIC50 5.00-5.99),
COc1ccc2[nH]cc(C3CCN(C(C)=O)CC3)c2c1 [Compound 199],,+ (+ = pIC50 4.00-4.99),,
CN(C)S(=O)(=O)N1CC=C(c2c[nH]c3cc(F)ccc23)CC1 [Compound 251],+ (+ = pIC50 4.00-4.99),+ (+ = pIC50 4.00-4.99),+++ (+++ = pIC50 ≥6.00),
CC(=O)N1CC=C(c2c[nH]c3ccccc23)CC1 [Compound 210],,++ (++ = pIC50 5.00-5.99),++ (++ = pIC50 5.00-5.99),
O=C(C(F)F)N1CCC(c2c[nH]c3cc(F)ccc23)CC1 [Compound 260],,+ (+ = pIC50 4.00-4.99),++ (++ = pIC50 5.00-5.99),
CNS(=O)(=O)N1CCC(c2c[nH]c3cc(F)ccc23)CC1 [Compound 257],+ (+ = pIC50 4.00-4.99),+ (+ = pIC50 4.00-4.99),++ (++ = pIC50 5.00-5.99),
CC(=O)N1CC=C(c2c[nH]c3cccnc23)CC1 [Compound 157],+ (+ = pIC50 4.00-4.99),,+ (+ = pIC50 4.00-4.99),+− (+− = pIC50 <4.00)
CS(=O)(=O)N1CCCC(c2c[nH]c3cc(F)ccc23)CC1 (stereo not shown) [Compound 182],+ (+ = pIC50 4.00-4.99),,++ (++ = pIC50 5.00-5.99),+− (+− = pIC50 <4.00)
CC1CN(c2c[nH]c3ccccc23)CCN1S(C)(=O)=O (stereo not shown) [Compound 186],+− (+− = pIC50 <4.00),,++ (++ = pIC50 5.00-5.99),+− (+− = pIC50 <4.00)
CNS(=O)(=O)N1CC=C(c2c[nH]c3cc(F)ccc23)CC1 [Compound 256],+ (+ = pIC50 4.00-4.99),+ (+ = pIC50 4.00-4.99),++ (++ = pIC50 5.00-5.99),
Cc1nc(N2CCC(c3c[nH]c4cc(F)ccc34)CC2)no1 [Compound 184],+ (+ = pIC50 4.00-4.99),,++ (++ = pIC50 5.00-5.99),+− (+− = pIC50 <4.00)
COc1ccc2[nH]cc(C3CCN(S(=O)(=O)c4cccc(OC(F)(F)F)c4)CC3)c2c1 [Compound 53],+ (+ = pIC50 4.00-4.99),,+ (+ = pIC50 4.00-4.99),+− (+− = pIC50 <4.00)

# Results, then the molecule that gave them:
SKOV3 Kynurenine cell based assay pIC50 [1],hTDO biochemical assay pIC50 (Recombinant human TDO),A172 Kynurenine cell based assay pIC50 [2],hIDO biocehmical assay pIC50 (Recombinant human IDO),SMILES
+ (+ = pIC50 4.00-4.99),+ (+ = pIC50 4.00-4.99),,,CC(=O)N1CCCN(c2c[nH]c3ccccc23)CC1 [Compound 308]
,+ (+ = pIC50 4.00-4.99),++ (++ = pIC50 5.00-5.99),,NS(=O)(=O)N1CCN(c2c[nH]c3ccccc23)CC1 [Compound 311]
,+ (+ = pIC50 4.00-4.99),++ (++ = pIC50 5.00-5.99),,CNCC1CN(c2c[nH]c3ccccc23)CCN1S(C)(=O)=O (stereo not shown) [Compound 319]
,+ (+ = pIC50 4.00-4.99),++ (++ = pIC50 5.00-5.99),,O=S1(=O)CCC2CN(c3c[nH]c4ccccc34)CCN21 (stereo not shown) [Compound 304]
,+ (+ = pIC50 4.00-4.99),++ (++ = pIC50 5.00-5.99),,Cn1cc(S(=O)(=O)N2CCC(c3c[nH]c4cc(F)ccc34)CC2)cn1 [Compound 286]
+ (+ = pIC50 4.00-4.99),+ (+ = pIC50 4.00-4.99),++ (++ = pIC50 5.00-5.99),,CCCS(=O)(=O)N1CCC(c2c[nH]c3cc(F)ccc23)CC1 [Compound 292]
+ (+ = pIC50 4.00-4.99),+ (+ = pIC50 4.00-4.99),++ (++ = pIC50 5.00-5.99),,O=C(CO)N1CCC(c2c[nH]c3cc(F)ccc23)CC1 [Compound 269]
+ (+ = pIC50 4.00-4.99),+ (+ = pIC50 4.00-4.99),++ (++ = pIC50 5.00-5.99),,O=C(C1CC1)N1CCC(c2c[nH]c3cc(F)ccc23)CC1 [Compound 265]
+ (+ = pIC50 4.00-4.99),+ (+ = pIC50 4.00-4.99),++ (++ = pIC50 5.00-5.99),,O=S(=O)(C1CC1)N1CCC(c2c[nH]c3cc(F)ccc23)CC1 [Compound 288]
,+ (+ = pIC50 4.00-4.99),++ (++ = pIC50 5.00-5.99),,CNS(=O)(=O)N1CCN(c2c[nH]c3ccccc23)CC1 [Compound 295]
+ (+ = pIC50 4.00-4.99),+ (+ = pIC50 4.00-4.99),++ (++ = pIC50 5.00-5.99),,COCCS(=O)(=O)N1CCC(c2c[nH]c3cc(F)ccc23)CC1 [Compound 285]
